# Source: US4927941A, “Fluorine-containing nitroazole derivatives and radiosensitizer comprising the same” (Yasunori Nishijima & Daikin Industries Ltd., priority 1987, dated 1990)
# Columns and labels:
# EMT-6 tumor cells = assay: Radiosensitization effect on tumor transplanted in animal (ER in vivo); design: species or system Balb/c mouse; details: in a low concentration
# Protocol: To both thighs of male Balb/c mouse (8 weeks; 4 mice in a group), 10^5 of EMT-6 tumor cells were subcutaneously inoculated. After the diameter of the tumor reached about 1 cm, a solution of a compound to be examined in saline was intraperitonealy administered (200 mg/kg). After 40 minutes from the administration, X-ray was irradiated at a dose rate of 450 rad/min. for 5 minutes and then the mouse was sacrificed.
# After the mouse was systemically sterilized, the tumor was taken out and the tissue was homogenated. Then, 22 ml of trypsin was added to the homogenate and stirred for 50 minutes at 37° C. The number of cells in the supernatant was counted. A predetermined amount of the cells was introduced in a plastic plate having a diameter of about 5 cm. To the plate, 5 ml of medium was added and cultured in a CO2 incubator. The plates containing the irradiated and unirradiated cells were removed from the incubator after 9 days and 10 days incubation, respectively. The cells were fixed by methanol and stained by Giemsa stain. Then, the number of colonies formed were counted.
# The survival rate was calculated with using the unirradiated cells as control.
# hypoxic cells [1] = details: administered in human beings; cited from earlier work
# hypoxic cells [2] = details: versus no Misonidazole; cited from earlier work
SMILES,LD50 (in vivo),further results
"COCCNC(=O)C(F)(F)Cn1cnc([N+](=O)[O-])n1 [(2), 3-(3'-nitro-1',2',4'-triazol-1'-yl)-2,2-difluoropropionic acid methoxyethylamide]",> 3000 mg/kg,–
"O=C(NCCO)C(F)(F)Cn1cnc([N+](=O)[O-])n1 [(3), 3-(3'-nitro-1',2',4'-triazol-1'-yl)-2,2-difluoropropionic acid hydroxyethylamide]",1600 mg/kg,–
"COCC(F)Cn1cnc([N+](=O)[O-])n1 (stereo not drawn) [(7), 1-(2'-fluoro-3'-methoxypropyl)-3-nitro-1,2,4-triazole]",> 2000 mg/kg,–
"O=[N+]([O-])c1ncn(CC(O)CF)n1 (stereo not drawn) [(13), 1-(3'-fluoro-2'-hydroxypropyl)-3-nitro-1,2,4-triazole]",700 mg/kg,ER in vivo in comparison with comparative compounds (1) and (2) (EMT-6 tumor cells): comparable
"NC(=O)C(F)(F)Cn1cnc([N+](=O)[O-])n1 [(43), 3-(3'-nitro-1',2', 4'-triazol-1'-yl)-2,2-difluoropropionamide]",700 mg/kg,–
"CC(C)NC(=O)C(F)(F)Cn1cnc([N+](=O)[O-])n1 [(53), 3-(3'-nitro-1', 2', 4'-triazol-1'-yl)-2,2-difluoropropionic acid isopropylamide]",600 mg/kg,–
"CC(O)CNC(=O)C(F)(F)Cn1cnc([N+](=O)[O-])n1 (stereo not drawn) [(60), 3-(3'-nitro-1', 2', 4'-triazol-1'-yl)-2,2-difluoropropionic acid isopropanolamide]",1200 mg/kg,–
"NC(=O)CCNC(=O)C(F)(F)Cn1cnc([N+](=O)[O-])n1 [(62), 1-(3'-nitro-1',2',4'-triazol-1'-yl)-2,2-difluoropropionic acid 3-alanylamide]",1500 mg/kg,–
"O=[N+]([O-])c1ncn(CC(F)COCC(O)CO)n1 (stereo not drawn) [(65), 1-(2'-fluoro-4'-oxo-6',7'-dihydroxyheptyl)-3-nitro-1,2,4-triazole]",1600 mg/kg,–
"COCC(O)Cn1ccnc1[N+](=O)[O-] (stereo not drawn) [Misonidazole, 1-(2-Nitro-1-imidazolyl)-3-methoxy-2-propanol]",–,sensitizing effect in human beings (hypoxic cells [1]): No sensitizing effect was confirmed; effectiveness as hypoxic cell sensitizer (hypoxic cells [2]): about twice as effective as when no Misonidazole is used
